{"source": "patent US20250034109A1", "about": "“SALTS, COCRYSTALS, PHARMACEUTICAL COMPOSITIONS THEREOF, AND METHODS OF TREATMENT INVOLVING THE SAME” (Servier Pharmaceuticals LLC, priority 2023, published 2025)", "key": {"[1]": {"tested_on": "mutant IDH1", "conditions": "biochemical and cellular assays; cited from earlier work"}, "[2]": {"tested_on": "mutant IDH2", "conditions": "biochemical and cellular assays; cited from earlier work"}, "[3]": {"assay": "Solubility of the drug substance (general statement)", "format": "physicochemical"}}, "data": [{"smiles": "C[C@@H](Nc1nc(N[C@H](C)C(F)(F)F)nc(-c2cccc(Cl)n2)n1)C(F)(F)F", "note": "[Compound 1, 6-(6-chloropyridin-2-yl)-N^2,N^4-bis((R)-1,1,1-trifluoropropan-2-yl)-1,3,5-triazine-2,4-diamine]", "values": [{"measurement": "inhibitor of mutant IDH1 protein", "setting": "[1]", "result": "inhibitor"}, {"measurement": "inhibitor of mutant IDH2 protein", "setting": "[2]", "result": "inhibitor"}, {"measurement": "solubility", "setting": "[3]", "result": "poorly soluble"}]}]}
